Source: patent publication US20240254132A1, “COMPOUNDS, COMPOSITIONS AND METHODS” (Denali Therapeutics Inc., priority 2021, published 2024)

Tested on: IL-1β secretion, THP-1 cells
Experiment: IL-1β secretion assay in PMA-differentiated THP-1 cells (LPS + nigericin stimulation, IL-1β ELISA)
Format: cell-based
Conditions: Homo sapiens, LPS 25 ng/mL, IL-1β by ELISA
Method: Compounds as provided herein were tested in the following assay. Cell culture medium employed contained RPMI 1640 medium (89%), FBS (10%), Pen/Strep (1%), and 2-mercaptoethanol (0.05 mm). Freezing medium was made up of 90% FBS and 10% DMSO. THP-1 cells were removed from the liquid nitrogen and placed into a 37° C. water bath to thaw, until signs of ice dissipated. The cells were then added to 9 mL of warm cell culture medium and centrifuged for 5 minutes at 1000 rpm. The supernatant was discarded, and the cells were resuspended in new cell culture medium. THP-1 cells were then split and cultured in the cell culture medium, being passaged every 2-3 days with the cell density will be maintained between 5×10^5 and 1.5×10^6 viable cells/mL.
Procedure for […], Secretion Assay in 384-Well Plates
PMA was dissolved in DMSO to make a stock solution at 5 mg/mL and stored in 10 μl aliquots at −20° C. for single use. PMA is added to normal growth medium. LPS was diluted with 1 mL of water solution to provide a 1 mg/mL stock solution and stored in 15 μl aliquots at −20° C. for single use. Nigericin is diluted in ice cold 100% ethanol to 5 mg/mL (6.7 mM) and stored in 75 μL aliquots at −20° C. for single use. Serum-free media contains RPMI 1640 medium (99%), Pen/Strep (1%), and 2-mercaptoethanol (0.05 mM). The two control conditions used to qualify and normalize test compound dose-response curves were as follows: High Control=25 ng/mL LPS, 5 μM Nigericin, 0.5% DMSO, Low Control=25 ng/mL, LPS, 0.5% DMSO.
THP-1 cells were diluted to provide a suspension at a concentration of 1.0×10^6 cells/mL with the total volume of suspension required to enable the desired number of assay plates. The growth media was supplemented with PMA (5 ng/mL final concentration) and the cells were incubated at 37° C. under a humidified atmosphere of 5% CO2 for 40 h.
All media was carefully aspirated from each culture flask. The cells were washed carefully with 1×DPBS. The cells were then briefly digested with trypsin LE for 5 minutes at 23° C. and immediately resuspended in cell growth media. After resuspension, the cells were centrifuged at 1000 rpm for 3 minutes and the supernatant was discarded. The cells were resuspended in DPBS and once again centrifuged at 1000 rpm for 5 minutes. The supernatant was discarded and the cell pellet was resuspended in serum-free media supplemented with LPS (25 ng/mL final concentration) to enable the distribution of 30K THP-1 cells within 45 μL of media into each well of 384-well PDL-coated plates. The 384-well plates were then incubated at 37° C. under a humidified atmosphere of 5% CO2 for 2 h. Following this period, test compounds were dispensed by Tecan across the desired concentration range with all wells normalized to a final 0.5% DMSO concentration. The plates were then incubated at 37° C. under a humidified atmosphere of 5% CO2 for 1 h. Following this period, 5 μL of the 5 mg/mL nigericin stock solution was added to each of the appropriate wells and plates were centrifuged at 1000 rpm for 30 seconds. The plates were the immediately reintroduced to the incubator at 37° C. under a humidified atmosphere of 5% CO2 for 2 h. After this time, 35 μL/well of supernatant was collected and transferred into v-bottom plate and centrifuged at 1000 rpm for 1 minute. These supernatant aliquots were analyzed using an IL-Iβ detection kit as described below. If needed, the test samples could be snap frozen and stored at −80° C. until analyzed.
To prepare each ELISA plate, capture antibody (mAb Mt175) was diluted with PBS to a final concentration of 2 μg/mL and then 20 μL of this solution was added to each well of the ELISA plate. Each plate was allowed to incubate overnight at 4° C. The next day, the capture antibody solution was removed and discarded. Each ELISA plate was washed 4 times with PBST followed by the addition of 25 μL/well of blocking buffer (Licor-927-40010) supplemented with 0.1% Tween 20. […]

## O=C(CN1C(=O)c2ccc(Br)cc2C2(CC2)C1=O)Nc1ncc(F)cn1 [Example 33, 2-(6′-bromo-1′,3′-dioxospiro[cyclopropane-1,4′-isoquinoline]-2′-yl)-N-(5-fluoropyrimidin-2-yl)acetamide]
THP-1, class symbol
  IC50: < 10 µM
THP-1, numeric value
  IC50: 0.184 µM
